Strand notation (5' to 3'): a small letter for the sugar, then the base; units joined by * are phosphorothioate-linked, units joined directly phosphodiester-linked; [ ] holds rarer units or linkages, { } end groups; capitals alone tell only the bases. e = 2'-O-(2-methoxyethyl) (MOE); [5mC] = 5-methylcytosine; d = 2'-deoxy (DNA)
Test system: human SMAD7 mRNA
Test: Antisense inhibition of human SMAD7 mRNA expression in Hep3B cells by 5-10-5 MOE gapmers, single concentration, electroporation, RT-PCR (Example 1, Study 1 and 2)
Assay type: cell-based
Conditions: for % Inhibition of SMAD7 mRNA: electroporation with 15,000 nM antisense oligonucleotide (Study 2); for % Inhibition: Study 2, electroporation with 15,000 nM antisense oligonucleotide
Protocol: Antisense oligonucleotides were designed to target human SMAD7 mRNA and were tested for their effects on SMAD7 mRNA expression in vitro. Cultured Hep3B cells at a density of 20,000 cells per well were transfected using electroporation with antisense oligonucleotide ION 483663 (a 5-10-5 MOE gapmer), the sequence of which overlaps with ION 28453 (a 4-10-4 MOE gapmer) was included in these assays for comparison. ION 28453 has been previously disclosed in U.S. Pat. No. 6,159,697). After a treatment period of approximately 24 hours, RNA was isolated from the cells and SMAD7 mRNA levels were measured by quantitative real-time PCR. Primer probe set RTS5062 (forward sequence […], designated herein as SEQ ID NO: 11; reverse sequence […], designated herein as SEQ ID NO: 12; probe sequence […], designated herein as SEQ ID NO: 13) was used to measure human SMAD7 mRNA levels. SMAD7 mRNA levels were adjusted according to total RNA content, as measured by RIBOGREEN®. Results are presented as percent inhibition of SMAD7 mRNA expression, relative to untreated control cells.
The newly designed chimeric antisense oligonucleotides in the Tables below were designed as 5-10-5 MOE gapmers. The gapmers are 20 nucleosides in length, wherein the central gap segment comprises of ten 2′-deoxynucleosides and is flanked by wing segments on the 5′ direction and the 3′ direction comprising five nucleosides each. Each nucleoside in the 5′ wing segment and each nucleoside in the 3′ wing segment has a 2′-MOE modification. The internucleoside linkages throughout each gapmer are phosphorothioate (P═S) linkages. All cytosine residues throughout each gapmer are 5-methylcytosines.
“Start site” indicates the 5′-most nucleoside to which the gapmer is targeted in the human gene sequence. “Stop site” indicates the 3′-most nucleoside to which the gapmer is targeted human gene sequence.
Cultured Hep3B cells at a density of 20,000 cells per well were transfected using electroporation with 5,000 nM antisense oligonucleotide.
Cultured Hep3B cells at a density of 20,000 cells per well were transfected using electroporation with 15,000 nM antisense oligonucleotide. The antisense oligonucleotides were tested in a series of experiments that had similar culture conditions as described below.
Some of the oligonucleotides presented were complementary to SMAD7 mRNA sequences RefSeqNo. NM_001190821.1 (designated herein as SEQ ID NO: 3) or RefSeqNo. NM_001190822.1 (designated herein as SEQ ID NO: 4), and are presented in a separate table shown below.

[1] = 5-10-5 MOE gapmers targeting SEQ ID NO: 1 and 2
[2] = electroporation, 15,000 nM antisense oligonucleotide (Study 2), 5-10-5 MOE gapmers targeting SEQ ID NO: 1 and 2
[3] = electroporation, 5,000 nM, approximately 24 hours, relative to untreated control cells, gapmers targeting SEQ ID NO: 1 and 2
[4] = electroporation, 15,000 nM, approximately 24 hours, relative to untreated control cells, gapmers targeting SEQ ID NO: 1 and 2

Substance	% inhibition of SMAD7 mRNA expression [2] [%]	% Inhibition [1] [%]	also measured
771363 (antisense eT*e[5mC]*eA*eG*eG*d[5mC]*dT*dT*d[5mC]*dA*d[5mC]*dT*dG*d[5mC]*d[5mC]*e[5mC]*eA*eT*e[5mC]*eG) [compound 771363]	12		% Inhibition of SMAD7 mRNA [1]: 35%
771364 (antisense eT*eA*eA*eT*eG*dG*dT*d[5mC]*dT*dG*d[5mC]*dT*d[5mC]*dA*dG*eG*e[5mC]*eT*eT*e[5mC]) [compound 771364]	23		
771365 (antisense eA*eT*eT*eA*eT*dT*dA*dA*dT*dG*dG*dT*d[5mC]*dT*dG*e[5mC]*eT*e[5mC]*eA*eG) [compound 771365]	5		
771366 (antisense eT*eG*e[5mC]*eT*eG*dA*dT*dT*dA*dT*dT*dA*dA*dT*dG*eG*eT*e[5mC]*eT*eG) [compound 771366]		0	% inhibition of SMAD7 mRNA expression [3]: 49%
771367 (antisense e[5mC]*eT*eT*eG*eA*dT*dG*d[5mC]*dT*dG*dA*dT*dT*dA*dT*eT*eA*eA*eT*eG) [compound 771367]		0	
771368 (antisense e[5mC]*eG*eG*e[5mC]*e[5mC]*dT*dT*dG*dA*dT*dG*d[5mC]*dT*dG*dA*eT*eT*eA*eT*eT) [compound 771368]			% inhibition of SMAD7 mRNA expression [4]: 27%
771369 (antisense e[5mC]*eA*eA*eA*eA*dG*dG*d[5mC]*dT*dG*dA*d[5mC]*dT*d[5mC]*dG*e[5mC]*eG*eG*e[5mC]*e[5mC]) [compound 771369]		22	
771370 (antisense e[5mC]*eA*eT*eT*e[5mC]*d[5mC]*dA*dA*dA*dA*dG*dG*d[5mC]*dT*dG*eA*e[5mC]*eT*e[5mC]*eG) [compound 771370]		18	
771372 (antisense eA*e[5mC]*eA*eA*eA*d[5mC]*d[5mC]*dA*d[5mC]*dA*d[5mC]*dA*dT*dT*d[5mC]*e[5mC]*eA*eA*eA*eA) [compound 771372]	37		
771373 (antisense eG*eA*eA*eA*eG*dA*d[5mC]*dA*dA*dA*d[5mC]*d[5mC]*dA*d[5mC]*dA*e[5mC]*eA*eT*eT*e[5mC]) [compound 771373]	32		
771374 (antisense eA*eG*e[5mC]*eA*eT*dG*dA*dA*dA*dG*dA*d[5mC]*dA*dA*dA*e[5mC]*e[5mC]*eA*e[5mC]*eA) [compound 771374]		51	% inhibition of SMAD7 mRNA expression [3]: 44%
771375 (antisense e[5mC]*eT*eA*eA*eA*d[5mC]*dA*dG*d[5mC]*dA*dT*dG*dA*dA*dA*eG*eA*e[5mC]*eA*eA) [compound 771375]		4	
771376 (antisense eA*e[5mC]*eG*e[5mC]*eT*d[5mC]*dT*dA*dA*dA*d[5mC]*dA*dG*d[5mC]*dA*eT*eG*eA*eA*eA) [compound 771376]			% inhibition of SMAD7 mRNA expression [4]: 17%
771377 (antisense eT*eA*eA*eG*e[5mC]*dA*d[5mC]*dG*d[5mC]*dT*d[5mC]*dT*dA*dA*dA*e[5mC]*eA*eG*e[5mC]*eA) [compound 771377]		0	
771378 (antisense eA*eT*e[5mC]*eT*eT*dT*dA*dA*dG*d[5mC]*dA*d[5mC]*dG*d[5mC]*dT*e[5mC]*eT*eA*eA*eA) [compound 771378]		22	
771379 (antisense eG*eA*eT*e[5mC]*e[5mC]*dA*dT*d[5mC]*dT*dT*dT*dA*dA*dG*d[5mC]*eA*e[5mC]*eG*e[5mC]*eT) [compound 771379]	0		% Inhibition of SMAD7 mRNA [1]: 21%
771380 (antisense eA*e[5mC]*e[5mC]*eA*eA*dG*dA*dT*d[5mC]*d[5mC]*dA*dT*d[5mC]*dT*dT*eT*eA*eA*eG*e[5mC]) [compound 771380]	0		

Substance	% inhibition of SMAD7 mRNA expression [2] [%]	% Inhibition [1] [%]	also measured
771381 (antisense eA*eA*eA*eA*e[5mC]*dA*d[5mC]*d[5mC]*dA*dA*dG*dA*dT*d[5mC]*d[5mC]*eA*eT*e[5mC]*eT*eT) [compound 771381]	0		
771382 (antisense eA*eA*eA*eT*eA*dA*dA*dA*dA*d[5mC]*dA*d[5mC]*d[5mC]*dA*dA*eG*eA*eT*e[5mC]*e[5mC]) [compound 771382]		0	% inhibition of SMAD7 mRNA expression [3]: 55%
771383 (antisense eT*eA*e[5mC]*eA*e[5mC]*dA*dA*dA*dT*dA*dA*dA*dA*dA*d[5mC]*eA*e[5mC]*e[5mC]*eA*eA) [compound 771383]		0	
771384 (antisense eT*eG*e[5mC]*eT*eG*dT*dG*dG*dA*dT*dT*dT*dG*dA*dA*eA*eA*eG*eG*eG) [compound 771384]			% inhibition of SMAD7 mRNA expression [4]: 18%
771385 (antisense e[5mC]*eA*eG*eT*e[5mC]*dT*dG*d[5mC]*dT*dG*dT*dG*dG*dA*dT*eT*eT*eG*eA*eA) [compound 771385]		25	
771388 (antisense eG*e[5mC]*eG*e[5mC]*e[5mC]*d[5mC]*dT*dG*d[5mC]*dG*d[5mC]*dG*dG*d[5mC]*dT*e[5mC]*eT*e[5mC]*e[5mC]*eG) [compound 771388]	31		
771389 (antisense e[5mC]*eA*e[5mC]*e[5mC]*e[5mC]*d[5mC]*dG*d[5mC]*dG*d[5mC]*dG*dG*d[5mC]*d[5mC]*d[5mC]*eG*e[5mC]*eG*e[5mC]*e[5mC]) [compound 771389]	18		
771391 (antisense eT*e[5mC]*e[5mC]*eG*eG*d[5mC]*dT*dG*d[5mC]*d[5mC]*d[5mC]*d[5mC]*dA*d[5mC]*d[5mC]*e[5mC]*e[5mC]*eG*e[5mC]*eG) [compound 771391]		16	
771392 (antisense e[5mC]*eT*e[5mC]*e[5mC]*eG*dG*d[5mC]*dT*dG*d[5mC]*d[5mC]*d[5mC]*d[5mC]*dA*d[5mC]*e[5mC]*e[5mC]*e[5mC]*eG*e[5mC]) [compound 771392]			% inhibition of SMAD7 mRNA expression [4]: 28%
771393 (antisense eG*e[5mC]*eT*e[5mC]*e[5mC]*dG*dG*d[5mC]*dT*dG*d[5mC]*d[5mC]*d[5mC]*d[5mC]*dA*e[5mC]*e[5mC]*e[5mC]*e[5mC]*eG) [compound 771393]		0	
771394 (antisense e[5mC]*eG*e[5mC]*eT*e[5mC]*d[5mC]*dG*dG*d[5mC]*dT*dG*d[5mC]*d[5mC]*d[5mC]*d[5mC]*eA*e[5mC]*e[5mC]*e[5mC]*e[5mC]) [compound 771394]		10	
771395 (antisense eG*e[5mC]*eG*e[5mC]*eT*d[5mC]*d[5mC]*dG*dG*d[5mC]*dT*dG*d[5mC]*d[5mC]*d[5mC]*e[5mC]*eA*e[5mC]*e[5mC]*e[5mC]) [compound 771395]	0		% Inhibition of SMAD7 mRNA [1]: 34%
771396 (antisense e[5mC]*eT*eG*e[5mC]*eG*d[5mC]*dT*d[5mC]*d[5mC]*dG*dG*d[5mC]*dT*dG*d[5mC]*e[5mC]*e[5mC]*e[5mC]*eA*e[5mC]) [compound 771396]	48		
771398 (antisense eG*eG*e[5mC]*eA*eG*dG*dA*dG*d[5mC]*dG*dG*d[5mC]*dG*dG*d[5mC]*eG*eG*e[5mC]*e[5mC]*e[5mC]) [compound 771398]		48	% inhibition of SMAD7 mRNA expression [3]: 53%
771400 (antisense e[5mC]*eG*eA*e[5mC]*eA*dG*d[5mC]*dA*dG*d[5mC]*dA*dG*d[5mC]*dA*dG*e[5mC]*eA*eG*eG*eG) [compound 771400]			% inhibition of SMAD7 mRNA expression [4]: 52%
771401 (antisense eG*e[5mC]*eA*eG*eG*d[5mC]*dG*dA*d[5mC]*dA*dG*d[5mC]*dA*dG*d[5mC]*eA*eG*e[5mC]*eA*eG) [compound 771401]		21	
